Consider four molecules from patent US9592183B2, “Inhibitor of endothelin action and skin-whitening agent” (Kao Corporation, priority 2010, dated 2017).

“Also recorded” adds a separate entry of the source.

Common to all, as to assay type: cell-based
Data set [1] relates to endothelin (ET-1)-induced rise in intracellular calcium concentration in normal human neonatal epidermal melanocytes (NHEMs). Description: Endothelin action-suppressing effect: endothelin-induced rise in intracellular calcium (Fluo4-AM, FDSS). The conditions noted are these: for Rate of rise in intracellular Ca concentration: pretreated 1 minute, ET-1 100 nM, relative value, control = 100, N=6; for Effect of suppressing endothelin action (in words): 50 μM. Here is the method: Normal human neonatal epidermal melanocytes (NHEMs, KURABO INDUSTRIES LTD.) were seeded at 3×10^4 cells/well (200 μL/well) in 96-well plates for use in fluorometry, and cultured at 37° C. under 5% CO2. The medium used was PMA (−), growth additive (HMGS)-containing Medium 254.
After culture for 3 days, the medium was removed from the culture plate by decantation, and replaced with an assay buffer containing a reagent Fluo4-AM for intracellular Ca^2++ measurement, which was followed by incubation at 37° C. for 1 hour. Subsequently, 20 seconds after the start of the measurement, the compound at a predetermined concentration was pretreated for 1 minute in a FDSS (Functional Drug Screening System) instrument, and then endothelin (ET-1, 100 nM final concentration) as a ligand was added to the wells. Fluo4-AM fluorescence was detected at the measurement wavelengths Ex. 480 nm and Em. 540 nm over time from the start of the measurement to 5 minutes later.
For each compound, the rate (%) of rise in intracellular calcium (calcium ion) concentration was calculated as a relative value (%) when an increase (Max ratio−Min ratio) in Fluo4-AM fluorescence in a control was normalized as 100. The suppressing effect of endothelin action was evaluated based on the calculated rate. In the control used, ethanol or a 10 to 95 v/v % aqueous ethanol solution was added at a final concentration of 0.1 to 0.5 v/v %. […]
The compound prepared as described above was pretreated at the final concentration shown in Table 3 and subjected to the assay system. Then, the rate of endothelin-induced rise in Ca concentration was calculated (N=6). […]
(Calcium assays in cells follow changes in intracellular calcium, usually with a dye or a luminescent sensor.)

For data set [2], the system named is melanocyte-containing, 3-D cultured skin model (MEL300A). Description: Melanin production-suppressing effect in 3-D cultured skin model stimulated with ET-1 and SCF. The conditions noted are these: 14 days; for Effect on melanin content / melanin production (in words): 3-D skin model. Here is the method: (§1) A melanocyte-containing, 3-D cultured skin model (MEL300A, KURABO INDUSTRIES LTD.) was cultured at 37° C. under 5% CO2 using an EPI-100-NMM113 medium to which endothelin-1 (ET-1) as a melanocyte activator and SCF (stem cell growth factor) were each added at a final concentration of 10 nM. From the first day of the culture, the baeomycesic acid was added at a final concentration of 50 μM (N=2). The medium was refreshed once every three days. After 14 days, the skin model was washed with PBS and photographed. Subsequently, the cell respiration activity was measured using the Alamar Blue reagent to confirm that the final concentration was not cytotoxic (the results are not shown).
Subsequently, the skin model cup was washed with PBS, and the skin sheet was removed with tweezers, transferred into a tube, and washed three times with PBS. The skin sheet was washed three times with 50% ethanol and twice with 100% ethanol, and then allowed to stand overnight at room temperature, so that it was completely dried. After 200 μL of 2 M NaOH was added, the skin sheet was dissolved at 100° C. A supernatant obtained by centrifugation of the solution was measured for absorbance at a wavelength of 405 nm, and then the melanin content was calculated. The melanin content was expressed as a relative value (%) when the melanin content in a control was normalized as 100. In the control used, ethanol or a 10 to 95 v/v % aqueous ethanol solution was added at a final concentration of 0.1 to 0.5 v/v %.

Data set [3] shares this test system. Description: Cell respiration activity (Alamar Blue) of the skin model. The conditions noted are these: final concentration 50 μM, after 14 days; results not shown. Here is the method: as §1
In general terms: Resazurin is reduced to fluorescent resorufin, in cell work by metabolically active cells.

In the case of `COc1cc(C)c(C(=O)Oc2cc(C)c(C(=O)O)c(O)c2C)c(O)c1C` [Barbatic Acid, Barbatic acid], the “Rate of rise in intracellular Ca concentration” value (“Rate of rise” below) in data set [1] (compound 50 μM) was 38.4%.

With `COc1cc(C)c(C(=O)Oc2cc(C)c(C(=O)O)c(O)c2C)c(OC)c1C` [Diffractaic Acid, Diffractaic acid], the “Rate of rise” value in data set [1] (compound 50 μM) is given as 28.0%.

As to `COc1cc(C)c(C(=O)Oc2cc(C)c(C(=O)O)c(O)c2C)c(O)c1C(=O)O` [Squamatic Acid, squamatic acid, reference compound], in data set [1], the “Effect of suppressing endothelin action (in words)” value was “almost no effect of suppressing endothelin action”. In addition, the “Rate of rise” value in data set [1] (compound 50 μM) was found to be 95.9%. Further, in data set [1] (compound 50 μM, relative to control), the “Suppression of endothelin-induced rise in intracellular Ca concentration” value is “about 4%”. Moreover, the “Effect on melanin content / melanin production (in words)” value in data set [2] (ET-1 and SCF each 10 nM) is on record as “no significant reduction in melanin content; also recorded: almost no effect of suppressing melanin production”.

For the molecule `COc1cc(C)c(C(=O)Oc2cc(C)c(C(=O)O)c(O)c2C)c(O)c1C=O` [Baeomycesic Acid, baeomycesic acid], the “Effect of suppressing endothelin action (in words)” value in data set [1] was “significantly suppresses the rise in intracellular Ca concentration”. The “Rate of rise” value in data set [1] (compound 50 μM) is on record as 52.7%. The “Reduction in melanin content in the skin tissue relative to the control system” value in data set [2] (50 μM, ET-1 and SCF each 10 nM, FIG. 3, N=2) is recorded as “at least 40%”. Moreover, the “Skin colour of the skin sheet (photograph, FIG. 2)” value in data set [2] (50 μM, compared with the control system) is “light skin color and suppressed skin blackening”. For the same molecule, the “Effect on melanin content / melanin production (in words)” value in data set [2] (ET-1 and SCF each 10 nM) was “significantly suppresses melanin production”. The “Cytotoxicity (cell respiration activity, Alamar Blue)” value in data set [3] is “not cytotoxic”.
